Source: US20100267712A1, “ISOINDOLINE COMPOUNDS FOR THE TREATMENT OF SPINAL MUSCULAR ATROPHY AND OTHER USES” (The United States of America, as represented by the …, priority 2007, published 2010)

Legend:
[1] = tested on: SMN-containing gems in type 1 SMA patient fibroblasts (3813 cells); assay: SMN-containing gem count in SMA patient fibroblasts; type: cell-based, human; conditions: 48 hours, 3813 fibroblasts
Text: SMN protein can be found in punctate nuclear particles called “gems” (Liu and Dreyfuss, EMBO J, 15 (14): 3555-3565 (1996)). In fibroblast cells derived from SMA patients, the number of gems corresponds to disease severity as follows: severe type 1 patients have approximately 5 gems per 100 nuclei; mild type 3 patients have 20-50 gems per 100 nuclei; normal individuals have approximately 100-150 gems per 100 nuclei (Coovert et al., Hum Mol Genet, 6 (8): 1205-1214 (1997), Young et al., Exp Cell Res, 265 (2): 252-261 (2001)).
Gems are detectable by immunohistochemistry and gem counts in patient fibroblasts have been used to test the ability of compounds to increase SMN protein levels (Mattis et al., Hum Genet, 120: 589-601 (2006)). Following these methods, fibroblast cells from a type 1 SMA patient (3813 cells, Coriell Cell Repositories) were treated for 48 hours with a compound of the invention. The cells were then fixed and incubated with a monoclonal antibody against SMN (4B7, Wolstencroft et al., Hum Mol Genet, 14: 1199-1210 (2005)). A FITC-conjugated anti-mouse secondary antibody was used to visualize the labeled gems. A positive control in these experiments was provided by fibroblasts from the same patient treated with 1000 μM valproic acid.

[2] = tested on: SMN2-linked luciferase-reporter gene construct; assay: SMN Splice Reporter Assay (SMN2-linked luciferase reporter); type: cell-based; conditions: for EC50: cervical carcinoma cell lines, SMN2 splice luciferase reporter; for Fold Increase: fold-increase of luciferase over baseline reading of transformed cells without any test compound
How it was run: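 Cervical carcinoma cells carrying an SMN2-luciferase splicing reporter, in-frame only with exon 7 inclusion, were treated with compound. Luciferase activity reported as fold increase over untreated transformed cells, with EC50 derived.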

[3] = tested on: translational stop codon read-through, human SMN2 open reading frame-luciferase; assay: Translational read-through luciferase reporter assay (luciferase preceded by the open reading frame of the human SMN2 gene); type: cell-based
Text: This assay was similar in design to that described in WO 01/44516 A2. This was a cell-based luciferase reporter assay designed to detect translational read-through via insertion of a translational stop codon within the coding sequence that includes luciferase. In the presence of compounds that promote read-through of translational stop codons, active luciferase was produced and detected via chemiluminescence. Compounds of the invention typically were active in three versions of this assay: luciferase reporter containing a UGA stop codon, luciferase reporter containing a UAG stop codon, which is the first stop codon downstream of the improper splice junction between exons 6 and 8 in the human SMN2 transcript, and luciferase preceded by the open reading frame of the human SMN2 gene.

| SMILES | melting point | EC50 [2] [nM] | Fold Increase [2] | Average number of gems per 100 nuclei ([1]; 1 μM compound) | further results |
| --- | --- | --- | --- | --- | --- |
| COc1ccc2c(c1)C(=O)N(c1ccc3[nH]c(=O)ccc3c1)C2 [Example 34, 6-(6-methoxy-1-oxoisoindolin-2-yl)quinolin-2(1H)-one] | 305 to 310 °C | – | – | – | – |
| COc1ccc2c(c1)C(=O)N(c1ccc3[nH]c(=O)[nH]c3c1)C2 [Example 35, 5-(6-methoxy-1-oxoisoindolin-2-yl)-1H-benzo[d]imidazol-2(3H)-one] | 355 to 360 °C (dec.) | – | – | – | – |
| COc1ccc2c(c1)C(=O)N(c1ccc3c(c1)n(C)c(=O)n3C)C2 [Example 36, 5-(6-methoxy-1-oxoisoindolin-2-yl)-1,3-dimethyl-1H-benzo[d]imidazol-2(3H)-one] | 268 to 270 °C | – | – | – | – |
| COc1ccc2c(c1)C(=O)N(c1ccc3c(c1)NCCN3)C2 [Example 37, 6-methoxy-2-(1,2,3,4-tetrahydroquinoxalin-6-yl)isoindolin-1-one] | 159 to 163 °C | – | – | – | – |
| COc1ccc2c(c1)C(=O)N(c1ccc3c(c1)N(C)CCN3C)C2 [Example 38, 2-(1,4-dimethyl-1,2,3,4-tetrahydroquinoxalin-6-yl)-6-methoxyisoindolin-1-one] | 137 to 142 °C | – | – | – | – |
| COc1ccc2c(c1)C(=O)N(c1ccc(C(C)C)cn1)C2 [Example 39, 2-(5-isopropylpyridin-2-yl)-6-methoxyisoindolin-1-one] | 109 to 110 °C | – | – | – | – |
| COc1ccc2c(c1)C(=O)N(c1ccc3c(ccn3C)n1)C2 [Example 41, 6-methoxy-2-(1-methyl-1H-pyrrolo[3,2-b]pyridin-5-yl)isoindolin-1-one] | 230 to 234 °C | – | – | – | – |
| COc1ccc2c(c1)C(=O)N(c1cc3ccn(C)c3cn1)C2 [Example 42, 6-methoxy-2-(1-methyl-1H-pyrrolo[2,3-c]pyridin-5-yl)isoindolin-1-one] | 205 to 210 °C | – | – | – | – |
| COc1ccc2c(c1)C(=O)N(c1cnc3c(ccn3C)c1)C2 [Example 43, 6-methoxy-2-(1-methyl-1H-pyrrolo[2,3-b]pyridin-5-yl)isoindolin-1-one] | 198 to 199 °C | – | – | – | – |
| COc1ccc2c(c1)C(=O)N(c1ccc3c(cnn3C)c1)C2 [Example 44, 6-methoxy-2-(1-methyl-1H-indazol-5-yl)isoindolin-1-one] | 213 to 214 °C | – | – | – | – |
| COc1ccc2c(c1)C(=O)N(c1ccc3c(c1)CCCN3C)C2 [Example 45, 6-methoxy-2-(1-methyl-1,2,3,4-tetrahydroquinolin-6-yl)isoindolin-1-one] | 123 to 127 °C | – | – | – | – |
| O=C1c2ccccc2CN1c1ccc2c(c1)OCCO2 [Example 46, 2-(2,3-dihydrobenzo[b][1,4]dioxin-6-yl)isoindolin-1-one] | 170 to 176 °C | – | – | – | – |
| COc1ccc2c(c1)C(=O)N(c1ccc3ncsc3c1)C2 [Example 47, 2-(benzo[d]thiazol-6-yl)-6-methoxyisoindolin-1-one] | 204 to 207 °C | – | – | – | – |
| COc1ccc2c(c1)C(=O)N(c1ccc3ccoc3c1)C2 [Example 48, 2-(benzofuran-6-yl)-6-methoxyisoindolin-1-one] | 141 to 143 °C | – | – | – | – |
| COc1ccc2c(c1)C(=O)N(c1ccc3nc(C)ncc3c1)C2 [Example 49, 6-methoxy-2-(2-methylquinazolin-6-yl)isoindolin-1-one] | 245 to 247 °C | – | – | – | – |
| O=C1c2cc(OC(F)F)ccc2CN1c1ccc2c(c1)CCC2 [Example 50, 6-(difluoromethoxy)-2-(2,3-dihydro-1H-inden-5-yl)isoindolin-1-one] | 137 to 139 °C | – | – | – | – |
| COc1ccc2c(c1)C(=O)N(c1ccc3cccnc3c1)C2 [Example 51, 6-methoxy-2-(quinolin-7-yl)isoindolin-1-one] | 220 to 223 °C | – | – | – | – |
| COc1ccc2c(c1)C(=O)N(c1ccc3c(ccn3C)c1)C2 [Example 118417] | – | 45 | 1.485 | – | Average number of gems per 100 nuclei ([1]; 3 μM compound): 53 |
| COc1ccc2c(c1)C(=O)N(c1ccc3ccsc3c1)C2 [Example 118739] | – | 102 | 1.617 | 76 | – |

| SMILES | melting point | EC50 [2] [nM] | Fold Increase [2] | Average number of gems per 100 nuclei ([1]; 1 μM compound) | further results |
| --- | --- | --- | --- | --- | --- |
| CCCc1ccc2c(c1)C(=O)N(c1ccc3c(ccn3C)c1)C2 [Example 119522] | – | 68 | 1.557 | 6 | EC50 [3]: 1840 nM; maximal fold induction [3]: 1.73 |
| Cn1ccc2cc(N3Cc4ccc(OC(F)F)cc4C3=O)ccc21 [Example 119537] | – | 112 | 1.604 | – | EC50 [3]: 1350 nM; maximal fold induction [3]: 2.12; Average number of gems per 100 nuclei ([1]; 0.1 μM compound): 31 |
| COc1ccc2c(c1)C(=O)N(c1ccc3cc[nH]c3c1)C2 [Example 119869] | – | 106 | 1.716 | 49 | – |
| COc1ccc2c(c1)C(=O)N(c1ccc3c(c1)CCCN3C)C2 [Example 120121] | – | 20 | 1.702 | – | Average number of gems per 100 nuclei ([1]; 0.1 μM compound): 16 |
| COc1ccc2c(c1)C(=O)N(c1ccc3ncccc3c1)C2 [Example 120286] | – | 30 | 1.713 | – | Average number of gems per 100 nuclei ([1]; 0.1 μM compound): 132 |
| COc1ccc2c(c1)C(=O)N(c1ccc3c(c1)cc(C)n3C)C2 [Example 120595] | – | 114 | 1.531 | 32 | – |
| O=C1c2cc(OC(F)F)ccc2CN1c1ccc2ncccc2c1 [Example 120790] | – | 142 | 1.926 | 27 | – |
| CC(=O)Nc1ccc2c(c1)C(=O)N(c1ccc3ccn(C)c3c1)C2 [Example 121505] | – | 203 | 1.817 | 47 | – |
| CCOc1ccc2c(c1)C(=O)N(c1ccc3c(ccn3C)c1)C2 [Example 121789] | – | 69 | 1.461 | 10 | EC50 [3]: 350 nM; maximal fold induction [3]: 1.79 |
| CCC(C)c1ccc2c(c1)C(=O)N(c1ccc3c(ccn3C)c1)C2 (centres unmarked) [Example 122182] | – | 101 | 1.539 | 18 | – |
| Cn1ccc2cc(N3Cc4ccc(N5CCCC5)cc4C3=O)ccc21 [Example 122317] | – | 187 | 1.47 | 45 | – |
| Cc1cc2cc(N3Cc4ccc(Cl)cc4C3=O)ccc2n1C [Example 123011] | – | 88 | 1.481 | 37 | EC50 [3]: 2640 nM; maximal fold induction [3]: 1.89 |
| Cc1cc2cc(N3Cc4ccc(N(C)C)cc4C3=O)ccc2n1C [Example 123707] | – | 99 | 1.635 | – | EC50 [3]: 91 nM; maximal fold induction [3]: 1.44; Average number of gems per 100 nuclei ([1]; 0.1 μM compound): 53 |
| COc1ccc2c(c1)C(=O)N(c1ccc3c(c1)cc(C)n3C(C)C)C2 [Example 123714] | – | 2630 | 1.863 | 84 | EC50 [3]: 1900 nM; maximal fold induction [3]: 1.18 |
| CN(C)c1ccc2c(c1)C(=O)N(c1ccc3ncccc3c1)C2 [Example 124032] | – | 9 | 1.659 | 65 | maximal fold induction [3]: 1.02 |
| CN(C)c1ccc2c(c1)C(=O)N(c1ccc3c(ccn3C)c1)C2 [Example 124429] | – | 24 | 1.594 | 44 | – |
| Cn1ccc2ccc(N3Cc4ccc(N5CCCC5)cc4C3=O)cc21 [Example 124596] | – | 47 | 1.681 | 43 | – |
| COc1ccc2c(c1)C(=O)N(c1ccc3cc(C)n(C)c3c1)C2 [Example 124597] | – | 347 | 1.358 | 42 | – |
| CN(C)c1ccc2c(c1)C(=O)N(c1ccc3ccn(C)c3c1)C2 [Example 124771] | – | 43 | 1.689 | 50 | EC50 [3]: 4210 nM; maximal fold induction [3]: 1.8 |
